# Laboratory results reported in publication PMC6442233, “SAR and molecular mechanism studies of monoamine oxidase inhibition by selected chalcone analogs” (Journal of Enzyme Inhibition and Medicinal Chemistry, 2019).
# Biological target: T1, human MAO-A (Homo sapiens, UniProt P21397)
# T1 construct: purchased Sigma-Aldrich
# T1 sequence (P21397 1-527): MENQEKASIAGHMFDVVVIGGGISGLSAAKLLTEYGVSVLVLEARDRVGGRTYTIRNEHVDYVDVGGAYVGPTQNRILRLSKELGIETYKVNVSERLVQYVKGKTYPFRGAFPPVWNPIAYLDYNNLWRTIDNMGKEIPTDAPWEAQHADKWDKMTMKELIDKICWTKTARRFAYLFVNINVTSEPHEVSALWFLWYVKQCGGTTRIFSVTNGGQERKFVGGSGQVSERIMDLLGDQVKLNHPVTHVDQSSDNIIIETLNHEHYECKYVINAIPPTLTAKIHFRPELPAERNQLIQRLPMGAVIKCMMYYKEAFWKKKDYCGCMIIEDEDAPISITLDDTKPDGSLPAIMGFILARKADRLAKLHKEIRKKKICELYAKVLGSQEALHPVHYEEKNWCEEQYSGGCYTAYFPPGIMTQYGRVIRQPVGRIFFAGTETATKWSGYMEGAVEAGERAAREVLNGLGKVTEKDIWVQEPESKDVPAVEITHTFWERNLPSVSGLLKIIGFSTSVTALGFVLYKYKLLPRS
# Assay: IC50 determination for MAO-A inhibition (kynuramine, fluorescence)
# Type: biochemical
# Conditions: recombinant hMAO-A, kynuramine 50 μM, mean ± SD (triplicate)
# Description: (§1) IC50 values for the inhibition of MAO were determined by using the recombinant human MAO-A and MAO-B enzymes (Sigma-Aldrich). Enzyme reactions were performed at a final volume of 200 µL in white 96-well microplates (Eppendorf), with the reaction solvent consisting of potassium phosphate buffer (100 mM, pH 7.4, adjusted to isotonicity with KCl). The reactions contained the nonselective MAO substrate, kynuramine (50 μM), and the test inhibitors at 0.003–100 µM. The test compounds were initially dissolved in DMSO (100%), and after addition to the reactions yielded a concentration of 4% DMSO. Control reactions were included, which contained substrate and 4% DMSO but no test inhibitor. The MAO reactions were started by adding MAO-A (0.0075 mg protein/mL) or MAO-B (0.015 mg protein/mL), and were subsequently incubated for a period of 20 min (37 °C) in a convection oven. A volume of 80 µL 2 N sodium hydroxide was added to the reactions, and the fluorescence intensity of 4-hydroxyquinoline (the end-product of the MAO-catalyzed metabolism of kynuramine) in the reactions was measured at λex 310 and λem 400 nm. To quantify 4-hydroxyquinoline, a calibration curve (linear) ranging from 0.047 to 1.56 μM, was employed. […] These measurements were carried out in triplicate and the IC50 values are presented as the mean ± standard deviation (SD)[18].
# (§2) The formation of the dihydropyridinium species (MMDP^+) as a MAO-catalyzed oxidation product of MMTP was monitored at 420 nm. […] Based on this, the IC50 values were determined using kynuramine as a nonselective substrate. The rate of oxidation of kynuramine by MAO was monitored by measuring the fluorescence of the oxidation product, 4-hydroxyquinoline (λex= 310 nm; λem= 400 nm).
row,IC50,Structure (SMILES)
1,> 100 µM,"CCOc1cccc(/C=C/C(=O)c2ccc(Br)cc2)c1OCC [Compound 22, (E)-1–(4-bromophenyl)-3–(2,3-diethoxyphenyl)prop-2-en-1-one]"
2,7.18 ± 0.755 µM,"O=C(/C=C/c1cccc2c1OCO2)c1ccc(Br)cc1 [Compound 5, (E)-3-(benzo[d][1,3]dioxol-4-yl)-1–(4-bromophenyl)prop-2-en-1-one]"
3,> 100 µM,"CN(C)c1ccc(/C=C/C(=O)c2ccc(C(F)(F)F)cc2)cc1 [Compound 2, (E)-3–(4-(dimethylamino)phenyl)-1–(4-(trifluoromethyl)phenyl)prop-2-en-1-one]"
4,> 100 µM,"CN(C)c1ccc(/C=C/C(=O)c2ccc(Cl)cc2)cc1 [Compound 4, (E)-1–(4-chlorophenyl)-3–(4-(dimethylamino)phenyl)prop-2-en-1-one]"
5,11.9 ± 0.822 µM,"O=C(/C=C/c1ccc([N+](=O)[O-])cc1)c1ccc(F)cc1 [Compound 12, (E)-1–(4-fluorophenyl)-3–(4-nitrophenyl)prop-2-en-1-one]"
6,5.81 ± 0.878 µM,"COc1ccccc1/C=C/C(=O)c1ccc(Br)cc1 [Compound 20, (E)-1–(4-bromophenyl)-3–(2-methoxyphenyl)prop-2-en-1-one]"
7,> 100 µM,"O=C(/C=C/c1cccc2c1OCO2)c1cccc(Br)c1 [Compound 7, (E)-3-(benzo[d][1,3]dioxol-4-yl)-1–(3-bromophenyl)prop-2-en-1-one]"
8,87.3 ± 9.34 µM,"COc1cc(Br)ccc1/C=C/C(=O)c1ccc(S(C)(=O)=O)cc1 [Compound 10, (E)-3–(4-bromo-2-methoxyphenyl)-1–(4-(methylsulfonyl)phenyl)prop-2-en-1-one]"
9,45.5 ± 2.93 µM,"O=C(/C=C/c1ccc([N+](=O)[O-])cc1)c1ccc(Cl)cc1 [Compound 13, (E)-1–(4-chlorophenyl)-3–(4-nitrophenyl)prop-2-en-1-one]"

# Biological target: T2, human MAO-B (Homo sapiens, UniProt P27338)
# T2 construct: purchased Sigma-Aldrich
# T2 sequence (P27338 1-520): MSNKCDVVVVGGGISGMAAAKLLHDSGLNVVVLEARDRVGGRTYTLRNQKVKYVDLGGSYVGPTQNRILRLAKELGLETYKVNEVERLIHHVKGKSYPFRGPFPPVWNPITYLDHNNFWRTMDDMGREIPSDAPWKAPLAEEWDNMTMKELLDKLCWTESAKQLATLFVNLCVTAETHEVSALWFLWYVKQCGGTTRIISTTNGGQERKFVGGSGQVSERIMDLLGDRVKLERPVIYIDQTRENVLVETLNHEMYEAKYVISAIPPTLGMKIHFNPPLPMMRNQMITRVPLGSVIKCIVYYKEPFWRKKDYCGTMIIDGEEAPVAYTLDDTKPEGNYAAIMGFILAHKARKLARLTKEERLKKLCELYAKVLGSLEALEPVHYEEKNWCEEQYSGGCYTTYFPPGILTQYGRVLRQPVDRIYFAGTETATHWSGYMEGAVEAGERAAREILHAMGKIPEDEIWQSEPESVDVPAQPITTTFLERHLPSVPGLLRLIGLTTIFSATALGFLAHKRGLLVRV
# Assay: IC50 determination for MAO-B inhibition (kynuramine, fluorescence)
# Type: biochemical
# Conditions: SI = IC50(MAO-A)/IC50(MAO-B)
# Description: as §1, §2
row,Selectivity index,Structure (SMILES)
1,67,"O=C(/C=C/c1cccc2c1OCO2)c1ccc(Br)cc1 [Compound 5, (E)-3-(benzo[d][1,3]dioxol-4-yl)-1–(4-bromophenyl)prop-2-en-1-one]"
2,>260,"CN(C)c1ccc(/C=C/C(=O)c2ccc(C(F)(F)F)cc2)cc1 [Compound 2, (E)-3–(4-(dimethylamino)phenyl)-1–(4-(trifluoromethyl)phenyl)prop-2-en-1-one]"
3,>310,"CN(C)c1ccc(/C=C/C(=O)c2ccc(Cl)cc2)cc1 [Compound 4, (E)-1–(4-chlorophenyl)-3–(4-(dimethylamino)phenyl)prop-2-en-1-one]"
4,172,"O=C(/C=C/c1ccc([N+](=O)[O-])cc1)c1ccc(F)cc1 [Compound 12, (E)-1–(4-fluorophenyl)-3–(4-nitrophenyl)prop-2-en-1-one]"
5,5.8,"COc1ccccc1/C=C/C(=O)c1ccc(Br)cc1 [Compound 20, (E)-1–(4-bromophenyl)-3–(2-methoxyphenyl)prop-2-en-1-one]"
6,>1230,"O=C(/C=C/c1cccc2c1OCO2)c1cccc(Br)c1 [Compound 7, (E)-3-(benzo[d][1,3]dioxol-4-yl)-1–(3-bromophenyl)prop-2-en-1-one]"
7,150,"COc1cc(Br)ccc1/C=C/C(=O)c1ccc(S(C)(=O)=O)cc1 [Compound 10, (E)-3–(4-bromo-2-methoxyphenyl)-1–(4-(methylsulfonyl)phenyl)prop-2-en-1-one]"

# Same assay, conditions: recombinant hMAO-B, kynuramine 50 μM, mean ± SD (triplicate)
row,IC50,Structure (SMILES)
1,15.6 ± 0.803 µM,"CCOc1cccc(/C=C/C(=O)c2ccc(Br)cc2)c1OCC [Compound 22, (E)-1–(4-bromophenyl)-3–(2,3-diethoxyphenyl)prop-2-en-1-one]"
2,0.106 ± 0.012 µM,"O=C(/C=C/c1cccc2c1OCO2)c1ccc(Br)cc1 [Compound 5, (E)-3-(benzo[d][1,3]dioxol-4-yl)-1–(4-bromophenyl)prop-2-en-1-one]"
3,0.383 ± 0.061 µM,"CN(C)c1ccc(/C=C/C(=O)c2ccc(C(F)(F)F)cc2)cc1 [Compound 2, (E)-3–(4-(dimethylamino)phenyl)-1–(4-(trifluoromethyl)phenyl)prop-2-en-1-one]"
4,0.321 ± 0.023 µM,"CN(C)c1ccc(/C=C/C(=O)c2ccc(Cl)cc2)cc1 [Compound 4, (E)-1–(4-chlorophenyl)-3–(4-(dimethylamino)phenyl)prop-2-en-1-one]"
5,0.069 ± 0.006 µM,"O=C(/C=C/c1ccc([N+](=O)[O-])cc1)c1ccc(F)cc1 [Compound 12, (E)-1–(4-fluorophenyl)-3–(4-nitrophenyl)prop-2-en-1-one]"
6,0.999 ± 0.276 µM,"COc1ccccc1/C=C/C(=O)c1ccc(Br)cc1 [Compound 20, (E)-1–(4-bromophenyl)-3–(2-methoxyphenyl)prop-2-en-1-one]"
7,0.081 ± 0.012 µM,"O=C(/C=C/c1cccc2c1OCO2)c1cccc(Br)c1 [Compound 7, (E)-3-(benzo[d][1,3]dioxol-4-yl)-1–(3-bromophenyl)prop-2-en-1-one]"
8,0.582 ± 0.03 µM,"COc1cc(Br)ccc1/C=C/C(=O)c1ccc(S(C)(=O)=O)cc1 [Compound 10, (E)-3–(4-bromo-2-methoxyphenyl)-1–(4-(methylsulfonyl)phenyl)prop-2-en-1-one]"
9,0.034 ± 0.006 µM,"O=C(/C=C/c1ccc([N+](=O)[O-])cc1)c1ccc(Cl)cc1 [Compound 13, (E)-1–(4-chlorophenyl)-3–(4-nitrophenyl)prop-2-en-1-one]"

# System: not given
# Assay: not given
# Conditions: not given
row,melting point,Structure (SMILES)
1,75 to 79 °C,"CCOc1cccc(/C=C/C(=O)c2ccc(Br)cc2)c1OCC [Compound 22, (E)-1–(4-bromophenyl)-3–(2,3-diethoxyphenyl)prop-2-en-1-one]"
2,96 to 100 °C,"O=C(/C=C/c1cccc2c1OCO2)c1ccc(Br)cc1 [Compound 5, (E)-3-(benzo[d][1,3]dioxol-4-yl)-1–(4-bromophenyl)prop-2-en-1-one]"
3,165 to 169 °C,"O=C(/C=C/c1ccc([N+](=O)[O-])cc1)c1ccc(F)cc1 [Compound 12, (E)-1–(4-fluorophenyl)-3–(4-nitrophenyl)prop-2-en-1-one]"
4,73 to 77 °C,"COc1ccccc1/C=C/C(=O)c1ccc(Br)cc1 [Compound 20, (E)-1–(4-bromophenyl)-3–(2-methoxyphenyl)prop-2-en-1-one]"
5,107 to 111 °C,"O=C(/C=C/c1cccc2c1OCO2)c1cccc(Br)c1 [Compound 7, (E)-3-(benzo[d][1,3]dioxol-4-yl)-1–(3-bromophenyl)prop-2-en-1-one]"
6,199 to 203 °C,"COc1cc(Br)ccc1/C=C/C(=O)c1ccc(S(C)(=O)=O)cc1 [Compound 10, (E)-3–(4-bromo-2-methoxyphenyl)-1–(4-(methylsulfonyl)phenyl)prop-2-en-1-one]"
7,162 to 166 °C,"O=C(/C=C/c1ccc([N+](=O)[O-])cc1)c1ccc(Cl)cc1 [Compound 13, (E)-1–(4-chlorophenyl)-3–(4-nitrophenyl)prop-2-en-1-one]"
